Results: article PMC8955370, “Triterpenes and Phenolic Compounds from Euphorbia deightonii with Antiviral Activity against Herpes Simplex Virus Type-2” (Plants, 2022)
Where two headings read alike, the source gives them in different places.

Tests used:
[1] = MTT cell viability assay for cytotoxic concentration 50% (CC50); format: cell-based; settings: African green monkey
Protocol: For the determination of cytotoxic concentration 50% (CC50), a cell viability test was performed as an MTT assay using the Vero cell line. Cells were seeded at a density of 4 × 10^4 cells/well. After an overnight period, fresh medium was complemented with serial 2-fold dilutions of all compounds 1–8. The cells were incubated at 37 °C for 24 h. Later, 20 μL of thiazolyl blue tetrazolium bromide (MTT; Sigma-Aldrich, St. Louis, MO, USA) was added to each well. After an additional incubation at 37 °C for 4 h, sodium dodecyl sulphate (Sigma-Aldrich, St. Louis, MO, USA) solution (10% in 0.01 M HCI) was added and incubated overnight. CC50 was then determined by measuring the OD at 550 nm (ref. 630 nm) with the EZ READ 400 ELISA reader (Biochrom, Cambridge, UK). The assay was replicated four times for each concentration.

[2] = test system: six terrestrial pathogenic bacteria; parameters: method as in PMID 24914904; settings: cited from earlier work
HSV-2 [3] = assay: Anti-HSV-2 qRT-PCR assay on infected Vero cells; settings: for IC50: Human alphaherpesvirus 2, Vero; for Selectivity Index: SI = CC50/IC50; for Anti-HSV-2 Activity IC50: Vero cells infected with 0.01 MOI HSV-2, 24 h, qRT-PCR
HSV = test system: HSV; parameters: method as in PMID 14998984; settings: cited from earlier work
[4] = test system: acyclovir (ACV)-resistant strains of HSV-1; parameters: method as in PMID 32545813; settings: ACV-resistant HSV-1; cited from earlier work
[5] = test system: acyclovir (ACV)-resistant strains of HSV-2; settings: ACV-resistant HSV-2; cited from earlier work
[6] = test system: human HT-1080 fibrosarcoma; parameters: method as in PMID 9677271; settings: cited from earlier work
[7] = test system: murine colon 26-L5 carcinoma cells; parameters: method as in PMID 9677271; settings: cited from earlier work
HSV-2 [8] = settings: by reducing HSV-2 infectivity; cited from earlier work
Bacillus subtilis = test system: Bacillus subtilis; parameters: method as in doi:10.1016/S0031-9422(00)81759-8; settings: cited from earlier work
Klebsiella pneumoniae = test system: Klebsiella pneumoniae; parameters: method as in doi:10.1016/S0031-9422(00)81759-8; settings: cited from earlier work
Trychophyton rubrum = test system: Trychophyton rubrum; parameters: method as in doi:10.1016/S0031-9422(00)81759-8; settings: cited from earlier work
[9] = test system: influenza A virus (A/PR/8/34, H1N1); parameters: method as in PMID 28081470; settings: not effective; cited from earlier work
[10] = test system: porcine circovirus type 2 (PCV2); parameters: method as in doi:10.1007/s12257-014-0520-8; settings: at the concentration of 0.01563 mg/mL; cited from earlier work
hepatitis B virus (HBV) = test system: hepatitis B virus (HBV); parameters: method as in PMID 31557836; settings: HepG2.2.15 model transfected with HBV; cited from earlier work
rat epithelioid = test system: rat epithelioid; parameters: method as in PMID 26274958; settings: rat epithelioid cells; cited from earlier work
[11] = test system: human normal liver (L–O2); parameters: method as in PMID 23109850; settings: L–O2 cells; cited from earlier work
[12] = test system: gastric epithelial cell lines (GES–2); parameters: method as in PMID 23109850; settings: GES–2 cells; cited from earlier work
HSV-1 = test system: HSV-1; parameters: method as in PMID 14526920; settings: cited from earlier work
HSV-2 [13] = test system: HSV-2; parameters: method as in PMID 14526920; settings: cited from earlier work
[14] = Vero cells, MTT assay, 24 h, read-out: CC50
[15] = 24 h, read-out: Anti-HSV-2 Activity IC50

## C=C(CC[C@H](C)[C@@H]1CC[C@@]2(C)C3=C(CC[C@]12C)[C@@]1(C)CC[C@H](O)C(C)(C)[C@@H]1CC3=O)C(C)C [Compound 3, euphorbol-7-one]
[1]; [14]
  CC50 at 24 h: 7.84 ± 0.96 µM
[2]
  antibacterial activity: ineffective
HSV-2 [3]; [15]
  IC50: 2.42 ± 0.06 µM
HSV-2 [3]
  Selectivity Index: 3.23

## O=C(OC1OC2COC(=O)c3cc(O)c(O)c(O)c3-c3c(cc(O)c(O)c3O)C(=O)OC3C2OC(=O)C24CC5(O)OC6(OCC(O)C6O)C2OC2(O)C4c4c(cc(O)c(O)c4OC52O)C(=O)OC13)c1cc(O)c(O)c(O)c1 (centres unmarked) [putranjivain A]
HSV
  viral attachment and cell penetration: inhibition of viral attachment and cell penetration
  viral infectivity: significantly reduce viral infectivity

## COc1cc2c(=O)oc3c(OC)c(O)cc4c(=O)oc(c1OC)c2c34 [Compound 8, 3,4,3′-tri-O-methylellagic acid]
[1]
  CC50 at 24 h: 25.7 ± 1.84 µM
HSV-2 [3]
  Anti-HSV-2 Activity IC50: inactive

## grandinin
[4]
  antiviral activity: activity against acyclovir (ACV)-resistant strains of HSV-1 and HSV-2 was proved
[5]
  antiviral activity: activity against acyclovir (ACV)-resistant strains of HSV-1 and HSV-2 was proved

## COc1cc([C@H]2Oc3c(OC)cc(/C=C/COC(C)=O)cc3[C@@H]2COC(C)=O)ccc1O [Compound 5, dehydrodiconiferyl-diacetate]
[1]
  CC50 at 24 h: 82.5 ± 8.94 µM
[6]
  cytotoxic activity: moderate cytotoxic activity
[7]
  cytotoxic activity: moderate cytotoxic activity
HSV-2 [3]
  Anti-HSV-2 Activity IC50: inactive

## O=C(OC1C(O)C(O)OC2COC(=O)c3cc(O)c(O)c(O)c3-c3c(cc(O)c(O)c3O)C(=O)OC21)c1cc(O)c(O)c(O)c1 [3-O-galloyl-4,6-(S)-hexahydroxydiphenoyl-D-glucose]
HSV-2 [8]
  HSV-2 multiplication: inhibit HSV-2 multiplication

## COc1cc(C(OC)C(COC(C)=O)Oc2ccc(/C=C/COC(C)=O)cc2OC)ccc1O (centres unmarked) [Compound 6, marylaurencinol D]
[1]
  CC50 at 24 h: 71.6 ± 5.83 µM
Bacillus subtilis
  antimicrobial activity: weak potency
Klebsiella pneumoniae
  antimicrobial activity: no effect
Trychophyton rubrum
  antimicrobial activity: no effect
HSV-2 [3]
  Anti-HSV-2 Activity IC50: inactive

## C=C(CC[C@@H](C)[C@H]1CC[C@@]2(C)C3=C(C(=O)C[C@]12C)[C@@]1(C)CC[C@H](O)C(C)(C)[C@@H]1C[C@@H]3O)C(C)C [Compound 1, 3β,7β-dihydroxy-24-methylenelanosta-8-ene-11-one]
[1]
  CC50 at 24 h: 35.5 ± 1.62 µM
HSV-2 [3]; [15]
  IC50: 7.05 ± 0.25 µM
HSV-2 [3]
  Selectivity Index: 5.03

## C=CC(OC)c1cc(OC)c2c(c1)[C@@H](COC(C)=O)[C@H](c1ccc(O)c(OC)c1)O2 (relative stereo) [Compound 4, trans-(2-(4-hydroxy-3-methoxyphenyl)-7-methoxy-5-(1-methoxyallyl)-2,3-dihydrobenzofuran-3-yl)methyl acetate]
[1]
  CC50 at 24 h: 39.8 ± 4.73 µM
HSV-2 [3]; [15]
  IC50: 11.7 ± 0.79 µM
HSV-2 [3]
  Selectivity Index: 3.389

## COc1cc2ccc(=O)oc2cc1OC [Compound 7, 6,7-dimethoxycoumarin]
[1]
  CC50 at 24 h: 0.35 ± 0.016 µM
[9]
  IC50 against influenza A virus: > 15 µg/mL
[10]
  effect on PCV2 replication: replication-inducing activity
Hepatitis B virus (HBV)
  anti-hepatitis B virus activity: efficiently inhibits viral replication
HSV-2 [3]; [15]
  IC50: 0.032 ± 0.0021 µM
HSV-2 [3]; read-out: IC50 (anti-HSV-2)
  IC50: 0.032 µM
HSV-2 [3]
  Selectivity Index: 10.923

## O=C1OC[C@H]2OC(=O)c3cc(O)c(O)c(O)c3-c3c(O)c(O)c(O)c4c3C(=O)O[C@H]([C@H]3OC(=O)c5c-4c(O)c(O)c(O)c5[C@H]3O)[C@@H]2OC(=O)c2cc(O)c(O)c(O)c2-c2c1cc(O)c(O)c2O [castalagin]
[4]
  antiviral activity: activity against acyclovir (ACV)-resistant strains of HSV-1 and HSV-2 was proved
[5]
  antiviral activity: activity against acyclovir (ACV)-resistant strains of HSV-1 and HSV-2 was proved

## CC(C)=CCC[C@@H](C)[C@@H]1CC[C@]2(C)C3=C(CC[C@@]12C)[C@@]1(C)CC[C@H](O)C(C)(C)[C@@H]1CC3=O [Compound 2, kansenone]
[1]; [14]
  CC50 at 24 h: 52.1 ± 2.21 µM
Rat epithelioid
  cytotoxicity: strong cytotoxicity
[11]
  cytotoxicity: strong cytotoxicity
[12]
  cytotoxicity: strong cytotoxicity
HSV-2 [3]
  Anti-HSV-2 Activity IC50: inactive

## Nc1nc2c(ncn2COCCO)c(=O)[nH]1 [Acyclovir, reference compound]
[1]
  CC50 at 24 h: 100 ± 6.15 µM
HSV-2 [3]; [15]
  IC50: 0.77 ± 0.032 µM
HSV-2 [3]
  Selectivity Index: 129.87

## C=C(C)[C@@H]1CC[C@]2(C)CC[C@]3(C)[C@H](CC[C@@H]4[C@@]5(C)CCC(=O)C(C)(C)[C@@H]5CC[C@]43C)[C@@H]12 [lupenone]
HSV-1
  viral plaque inhibitory effect: strong viral plaque inhibitory effect
HSV-2 [13]
  viral plaque inhibitory effect: strong viral plaque inhibitory effect

## O=C1OCC2OC(=O)c3cc(O)c(O)c(O)c3-c3c(O)c(O)c(O)c4c3C(=O)OC(C2OC(=O)c2cc(O)c(O)c(O)c2-c2c1cc(O)c(O)c2O)C1OC(=O)c2c-4c(O)c(O)c(O)c2C1O (centres unmarked) [vescalagin]
[4]
  antiviral activity: activity against acyclovir (ACV)-resistant strains of HSV-1 and HSV-2 was proved
[5]
  antiviral activity: activity against acyclovir (ACV)-resistant strains of HSV-1 and HSV-2 was proved
